In patent US9980943B2, “Methods of treating muscular dystrophy” (BOARD OF REGENTS OF THE NEVADA SYSTEM OF HIGHER EDUCATION, …, priority 2013, dated 2018):

Tests used:
Assay type in all cases: cell-based, mouse
[1] = tested on: α7 integrin (LacZ reporter in α7βgal+/− myoblasts); experiment: Myoblast α7+/LacZ integrin FDG assay (Burkin assay in myoblasts, 96-well); settings: 96-well; for Burkin Assay in Myoblasts, value relative to DMSO: SU9516 analogs, N=3-6; for Burkin Assay in Myoblasts, signal relative to DMSO: α7+/LacZ myoblasts
[2] = tested on: α7 integrin (LacZ reporter in α7+/LacZ myotubes); experiment: Myotube α7 integrin FDG assay (Burkin assay in myotubes, 96-well); settings: for Burkin Assay in Myotubes, value relative to DMSO: SU9516 analogs, 96-well, N=3-6
[3] = tested on: β-galactosidase in CMV-LacZ C2C12 myoblasts; experiment: CMV-LacZ secondary screen in C2C12 myoblasts (β-Gal stabilizing assay); settings: for CMV-LACZ in Myoblasts, value relative to DMSO: SU9516 analogs, C2C12 CMV-LacZ, N=2; for CMV-LACZ in Myoblasts (β-galactosidase activity relative to DMSO): CMV-LacZ C2C12 myoblasts
Summary of the method: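 β-Gal level was the read-out, measured in a clonal C2C12 line expressing LacZ from a CMV promoter. Dose-response curves used six concentrations, 0.5 μM up to 40 μM, with duplicate points.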

[4] = tested on: β-galactosidase in CMV-LacZ C2C12 myotubes; experiment: CMV-LacZ secondary screen in C2C12 myotubes (β-Gal stabilizing assay); settings: for CMV-LACZ in Myotubes, value relative to DMSO: SU9516 analogs, C2C12 CMV-LacZ, N=2; for CMV-LACZ in Myotubes, signal relative to DMSO: C2C12 CMV-LacZ myotubes, fold relative to DMSO
Summary of the method: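 CMV-LacZ C2C12 line (clonal, FDG-screened); myoblasts/myotubes dosed 0.5–40 μM (0.5, 1, 5, 10, 20, 40 μM); n=2 per point; β-gal stabilization read-out.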

Structure (SMILES): N#C/C(=C1/C(=O)Nc2ccc(Br)cc21)c1ccccn1 [MLS001013431-01]
- Burkin Assay in Myoblasts, value relative to DMSO ([1]; 0.5 uM): 1.202
- Burkin Assay in Myoblasts, value relative to DMSO ([1]; 1 uM): 1
- Burkin Assay in Myoblasts, value relative to DMSO ([1]; 5 uM): 0.7077
- Burkin Assay in Myoblasts, value relative to DMSO ([1]; 10 uM): 0.5311
- Burkin Assay in Myoblasts, value relative to DMSO ([1]; 20 uM): 0.4522
- Burkin Assay in Myoblasts, value relative to DMSO ([1]; 40 uM): 0.3362
- Burkin Assay in Myotubes, value relative to DMSO ([2]; 0.5 uM): 1.238
- Burkin Assay in Myotubes, value relative to DMSO ([2]; 1 uM): 1.0097
- Burkin Assay in Myotubes, value relative to DMSO ([2]; 5 uM): 0.8507
- Burkin Assay in Myotubes, value relative to DMSO ([2]; 10 uM): 0.8506
- Burkin Assay in Myotubes, value relative to DMSO ([2]; 20 uM): 0.7376
- Burkin Assay in Myotubes, value relative to DMSO ([2]; 40 uM): 0.7069
- CMV-LACZ in Myoblasts, value relative to DMSO ([3]; 0.5 uM): 0.9906
- CMV-LACZ in Myoblasts, value relative to DMSO ([3]; 1 uM): 1.0640
- CMV-LACZ in Myoblasts, value relative to DMSO ([3]; 5 uM): 0.8366
- CMV-LACZ in Myoblasts, value relative to DMSO ([3]; 10 uM): 0.6673
- CMV-LACZ in Myoblasts, value relative to DMSO ([3]; 20 uM): 0.5904
- CMV-LACZ in Myoblasts, value relative to DMSO ([3]; 40 uM): 0.6670
- CMV-LACZ in Myotubes, value relative to DMSO ([4]; 0.5 uM): 0.8638
- CMV-LACZ in Myotubes, value relative to DMSO ([4]; 1 uM): 1.1257
- CMV-LACZ in Myotubes, value relative to DMSO ([4]; 5 uM): 0.9388
- CMV-LACZ in Myotubes, value relative to DMSO ([4]; 10 uM): 0.9162
- CMV-LACZ in Myotubes, value relative to DMSO ([4]; 20 uM): 1.0682
- CMV-LACZ in Myotubes, value relative to DMSO ([4]; 40 uM): 1.2059

Structure (SMILES): COc1ccc(NC(=O)C2(N(C(=O)Cn3nnnc3N)c3ccc(OC)cc3)CCCCC2)cc1 [MLS001030268-01]
- Burkin Assay in Myoblasts, signal relative to DMSO ([1]; 0.5 uM): 1.239
- Burkin Assay in Myoblasts, signal relative to DMSO ([1]; 1 uM): 1.143
- Burkin Assay in Myoblasts, signal relative to DMSO ([1]; 5 uM): 1.49
- Burkin Assay in Myoblasts, signal relative to DMSO ([1]; 10 uM): 0.8716
- Burkin Assay in Myoblasts, signal relative to DMSO ([1]; 20 uM): 0.726
- Burkin Assay in Myoblasts, signal relative to DMSO ([1]; 40 uM): 0.6069
- Burkin Assay in Myotubes, α7 integrin LacZ reporter signal relative to DMSO ([2]; 0.5 uM): 1.076
- Burkin Assay in Myotubes, α7 integrin LacZ reporter signal relative to DMSO ([2]; 1 uM): 1.161
- Burkin Assay in Myotubes, α7 integrin LacZ reporter signal relative to DMSO ([2]; 5 uM): 1.213
- Burkin Assay in Myotubes, α7 integrin LacZ reporter signal relative to DMSO ([2]; 10 uM): 0.9249
- Burkin Assay in Myotubes, α7 integrin LacZ reporter signal relative to DMSO ([2]; 20 uM): 0.6277
- Burkin Assay in Myotubes, α7 integrin LacZ reporter signal relative to DMSO ([2]; 40 uM): 0.7606
- CMV-LACZ in Myoblasts (β-galactosidase activity relative to DMSO) ([3]; 0.5 uM): 1.0809
- CMV-LACZ in Myoblasts (β-galactosidase activity relative to DMSO) ([3]; 1 uM): 1.1550
- CMV-LACZ in Myoblasts (β-galactosidase activity relative to DMSO) ([3]; 5 uM): 1.1347
- CMV-LACZ in Myoblasts (β-galactosidase activity relative to DMSO) ([3]; 10 uM): 1.1787
- CMV-LACZ in Myoblasts (β-galactosidase activity relative to DMSO) ([3]; 20 uM): 0.7467
- CMV-LACZ in Myoblasts (β-galactosidase activity relative to DMSO) ([3]; 40 uM): 0.5556
- CMV-LACZ in Myotubes, signal relative to DMSO ([4]; 0.5 uM): 0.8830
- CMV-LACZ in Myotubes, signal relative to DMSO ([4]; 1 uM): 1.1711
- CMV-LACZ in Myotubes, signal relative to DMSO ([4]; 5 uM): 1.1318
- CMV-LACZ in Myotubes, signal relative to DMSO ([4]; 10 uM): 1.1128
- CMV-LACZ in Myotubes, signal relative to DMSO ([4]; 20 uM): 0.9365
- CMV-LACZ in Myotubes, signal relative to DMSO ([4]; 40 uM): 0.9506
